We go through three molecules from patent publication US20170121315A1, “HETEROBICYCLICALLY SUBSTITUTED 4-OXOBUTANE ACID DERIVATIVES AND USE THEREOF” (priority 2014, published 2017).

Structures are written as SMILES.

Holding throughout (format): biochemical
One experiment addresses T1, MMP-10 (Homo sapiens, UniProt P09238).
T1 construct: purchased R&D Systems 910-MP
Description: In vitro MMP-10 inhibition test. As to conditions: human MMP-10. The gist of the method:
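APMA-activated recombinant MMP-10 (e.g. 2 nM final) with compound in Tris/HCl pH 7.5, CaCl2, NaCl, Brij-35 buffer; reaction started with quenched Mca/Dnp peptide substrate (e.g. 10 μM final). Fluorescence (ex 320/em 410 nm) followed e.g. 120 min at 32 °C; IC50 at 50% signal.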

Another experiment deals with T2, MMP-1 (Homo sapiens, UniProt P03956).
T2 construct: purchased R&D Systems 901-MP
T2 sequence (P03956 100-469): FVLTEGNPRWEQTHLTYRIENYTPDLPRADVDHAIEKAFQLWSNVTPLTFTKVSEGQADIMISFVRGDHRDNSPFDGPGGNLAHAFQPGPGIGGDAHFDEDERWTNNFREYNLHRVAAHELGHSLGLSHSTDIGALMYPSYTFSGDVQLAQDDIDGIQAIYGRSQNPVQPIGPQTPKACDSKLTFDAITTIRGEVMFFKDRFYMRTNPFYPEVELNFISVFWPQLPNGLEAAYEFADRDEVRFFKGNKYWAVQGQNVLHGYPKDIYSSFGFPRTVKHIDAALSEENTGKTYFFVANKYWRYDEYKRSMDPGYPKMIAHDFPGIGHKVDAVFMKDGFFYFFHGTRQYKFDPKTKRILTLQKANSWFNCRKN
Put plainly: In vitro MMP-1 inhibition test. Conditions: human MMP-1. The gist of the method:
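Recombinant enzyme was APMA-activated and used at e.g. 2 nM final in 50 mM Tris/HCl pH 7.5, 10 mM CaCl2, 150 mM NaCl, 0.05% Brij-35. Reaction was started with quenched Mca-Pro-Leu-Gly-Leu-Dpa(Dnp)-Ala-Arg-NH2 (e.g. 10 μM final), and fluorescence (ex 320/em 410 nm) was followed e.g. over 120 min at 32 °C. IC50 is the concentration giving 50% signal.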

Another experiment has as its target T3, MMP-2 (Homo sapiens, UniProt P08253).
T3 construct: purchased R&D Systems 902-MP
T3 sequence (P08253 110-660): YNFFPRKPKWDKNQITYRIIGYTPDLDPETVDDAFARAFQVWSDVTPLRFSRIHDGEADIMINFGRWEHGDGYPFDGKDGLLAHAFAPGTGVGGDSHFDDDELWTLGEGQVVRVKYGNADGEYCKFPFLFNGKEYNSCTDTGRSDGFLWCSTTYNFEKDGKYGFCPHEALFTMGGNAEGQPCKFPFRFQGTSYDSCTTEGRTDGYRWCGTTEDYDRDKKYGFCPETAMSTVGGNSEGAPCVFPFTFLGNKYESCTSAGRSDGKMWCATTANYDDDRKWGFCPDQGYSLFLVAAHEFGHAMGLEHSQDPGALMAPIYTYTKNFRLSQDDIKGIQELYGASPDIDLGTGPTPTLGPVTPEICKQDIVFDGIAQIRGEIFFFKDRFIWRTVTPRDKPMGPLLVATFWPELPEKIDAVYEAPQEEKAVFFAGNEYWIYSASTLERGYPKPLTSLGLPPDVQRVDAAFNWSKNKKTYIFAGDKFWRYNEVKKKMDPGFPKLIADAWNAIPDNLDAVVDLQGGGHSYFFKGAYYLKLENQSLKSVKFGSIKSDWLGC
Description: In vitro MMP-2 inhibition test. Conditions: human MMP-2. The gist of the method:
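APMA-activated recombinant MMP-2 (final e.g. 2 nM) with compound (e.g. 1 nM to 30 μM) in Tris/HCl pH 7.5 buffer with CaCl2, NaCl, Brij-35. Reaction started with quenched Mca-PLGL-Dpa(Dnp)-AR-NH2 substrate (final e.g. 10 μM); fluorescence (ex 320/em 410 nm) followed e.g. 120 min at 32 °C; IC50 at 50% signal.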

T1 sequence (P09238 99-476): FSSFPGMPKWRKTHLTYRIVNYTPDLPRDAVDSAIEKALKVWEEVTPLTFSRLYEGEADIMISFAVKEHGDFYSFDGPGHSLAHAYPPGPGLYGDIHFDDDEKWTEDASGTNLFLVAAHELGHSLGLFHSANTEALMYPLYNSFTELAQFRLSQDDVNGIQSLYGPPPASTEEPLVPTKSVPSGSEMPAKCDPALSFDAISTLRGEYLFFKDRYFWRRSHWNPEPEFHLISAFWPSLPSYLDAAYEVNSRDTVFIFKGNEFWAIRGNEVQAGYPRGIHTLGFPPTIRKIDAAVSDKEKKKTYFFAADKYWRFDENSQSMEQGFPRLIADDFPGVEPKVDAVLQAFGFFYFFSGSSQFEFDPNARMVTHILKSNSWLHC

As to `O=C(O)[C@H]1[C@H](Cn2nnc3ccc(C(F)(F)F)cc3c2=O)CC[C@@H]1C(=O)c1cc2cc(OCCc3ccccc3)ccc2o1` (racemic) [Example 157, (+/−)-(1RS,2SR,5RS)-2-{[4-Oxo-6-(trifluoromethyl)-1,2,3-benzotriazin-3(4H)-yl]methyl}-5-{[5-(2-phenylethoxy)-1-benzofur-2-yl]carbonyl}cyclopentanecarboxylic acid (racemate)], the half-maximal inhibitory concentration (IC50) (as a rule, the point on the concentration scale where inhibition reaches its midpoint) on MMP-10 is 0.19 µM; on MMP-1 it was greater than 40 µM; on MMP-2, 0.88 µM.
Consider `O=C(CC(CCn1nnc2ccccc2c1=O)C(=O)O)c1noc2cc(OCC3CCCCC3)ccc12` (racemic) [Example 153, (+/−)-4-[6-(Cyclohexylmethoxy)-1,2-benzoxazol-3-yl]-4-oxo-2-[2-(4-oxo-1,2,3-benzotriazin-3(4H)-yl)ethyl]butanoic acid], for which the figures for the IC50 against MMP-10, against MMP-1 and against MMP-2 were 14 µM, greater than 40 µM and 0.42 µM, respectively.
Take `CCCCCOc1ccc2c(C(=O)CC(CCn3nnc4ccccc4c3=O)C(=O)O)noc2c1` (racemic) [Example 140, (+/−)-4-Oxo-2-[2-(4-oxo-1,2,3-benzotriazin-3(4H)-yl)ethyl]-4-[6-(pentyloxy)-1,2-benzoxazol-3-yl]butanoic acid]: the half-maximal inhibitory concentration (IC50) was 6.3 µM on MMP-10, greater than 40 µM at MMP-1 and 0.095 µM against MMP-2.
